Measured values reported in US20260166045A1, “COMBINATION THERAPY COMPRISING GSPT1-DIRECTED MOLECULAR GLUE DEGRADERS AND PI3K/AKT/mTOR PATHWAY INHIBITORS” (Monte Rosa Therapeutics, Inc., priority 2022, published 2026).
Values joined by “and” are separate entries in the source; they are usually repeats but may differ in a detail not shown here. Equal entries are not always repeated.

Legend:
ABC-1 cell line = assay: CellTiter-Glo 2.0 cell viability, 7x7 combination dose response matrix, synergy scoring; type: cell-based
MDA-MB-231 cell line = assay: as above; type: cell-based
NCI-H1155 cell line = assay: as above; type: cell-based
NCI-H2023 cell line = assay: as above; type: cell-based
CAL51 xenografts = assay: CAL51 cell-derived xenograft (CDX) in vivo combination study; set-up: species or system SCID Beige mice; details: compound 1-1 3 mg/kg; for antitumor effect vs vehicle (tumor volume): day 21, ANOVA with post hoc Tukey's test; for antitumor effect vs vehicle (tumor volume) / Δ TV ratio to vehicle group (A/C, B/C, (AB)/C): p.o. qd; for Δ TV ratio to vehicle group (A/C, B/C, (AB)/C): day 21, Clarke method; for Δ TV (delta tumor volume): p.o. qd for 21 days, average of four tumors
Procedure: Compound 1-1 was formulated every day freshly as a solution in 5% DMSO/95% (30% w/v HPβCD in water). This formulation was also used as vehicle control. Everolimus was formulated as a suspension in 1% MC (400 cps), which was prepared every 3 days.
Body weights were measured at the same time.
Compound 1-1 was formulated every day freshly as a solution in 5% DMSO/95% (30% w/v HPβCD in water). This formulation was also used as vehicle control. Alpelisib was formulated as a solution in 20% captisol+80% water (pH adjusted to 4), which was prepared every week.

[1] = ABC-1, combined with GNE-477 21-10000 nM, first compound 1.05-500 nM
[2] = ABC-1, combined with KU-0063794 21-10000 nM, first compound 1.05-500 nM
[3] = ABC-1, combined with M2698 21-10000 nM, first compound 1.05-500 nM
[4] = MDA-MB-231, combined with Alpelisib 41-10000 nM, first compound 4.1-1000 nM
[5] = MDA-MB-231, combined with Capivasertib 41-10000 nM, first compound 4.1-1000 nM
[6] = MDA-MB-231, combined with Everolimus 41-10000 nM, first compound 4.1-1000 nM
[7] = MDA-MB-231, combined with GNE-477 41-10000 nM, first compound 4.1-1000 nM
[8] = MDA-MB-231, combined with KU-0063794 41-10000 nM, first compound 4.1-1000 nM
[9] = MDA-MB-231, combined with M2698 41-10000 nM, first compound 4.1-1000 nM
[10] = combined with GNE-477 21-10000 nM, first compound 1.05-500 nM
[11] = combined with KU-0063794 21-10000 nM, first compound 1.05-500 nM
[12] = combined with M2698 21-10000 nM, first compound 1.05-500 nM
[13] = NCI-H2023, combined with GNE-477 21-10000 nM, first compound 1.05-500 nM
[14] = NCI-H2023, combined with KU-0063794 21-10000 nM, first compound 1.05-500 nM
[15] = NCI-H2023, combined with M2698 21-10000 nM, first compound 1.05-500 nM
[16] = ABC-1, combined with Alpelisib 21-10000 nM, first compound 0.21-100 nM
[17] = ABC-1, combined with Capivasertib 21-10000 nM, first compound 0.21-100 nM
[18] = ABC-1, combined with Everolimus 2.1-1000 nM, first compound 0.21-100 nM
[19] = ABC-1, combined with GNE-477 21-10000 nM, first compound 0.21-100 nM
[20] = ABC-1, combined with KU-0063794 21-10000 nM, first compound 0.21-100 nM
[21] = ABC-1, combined with M2698 21-10000 nM, first compound 0.21-100 nM
[22] = MDA-MB-231, combined with Alpelisib 41-10000 nM, first compound 0.41-100 nM
[23] = MDA-MB-231, combined with Capivasertib 41-10000 nM, first compound 0.41-100 nM
[24] = MDA-MB-231, combined with Everolimus 41-10000 nM, first compound 0.41-100 nM
[25] = MDA-MB-231, combined with GNE-477 41-10000 nM, first compound 0.41-100 nM
[26] = MDA-MB-231, combined with KU-0063794 41-10000 nM, first compound 0.41-100 nM
[27] = combined with Alpelisib 21-10000 nM, first compound 0.21-100 nM
[28] = combined with Capivasertib 21-10000 nM, first compound 0.21-100 nM
[29] = combined with Everolimus 2.1-1000 nM, first compound 0.21-100 nM
[30] = combined with GNE-477 21-10000 nM, first compound 0.21-100 nM
[31] = combined with KU-0063794 21-10000 nM, first compound 0.21-100 nM
[32] = combined with M2698 21-10000 nM, first compound 0.21-100 nM
[33] = NCI-H2023, combined with Alpelisib 21-10000 nM, first compound 0.21-100 nM
[34] = NCI-H2023, combined with Capivasertib 21-10000 nM, first compound 0.21-100 nM
[35] = NCI-H2023, combined with Everolimus 2.1-1000 nM, first compound 0.21-100 nM
[36] = NCI-H2023, combined with GNE-477 21-10000 nM, first compound 0.21-100 nM
[37] = NCI-H2023, combined with KU-0063794 21-10000 nM, first compound 0.21-100 nM
[38] = NCI-H2023, combined with M2698 21-10000 nM, first compound 0.21-100 nM

Compound: O=C1CCC(N2Cc3ccc(COC(=O)Nc4cc(OC(F)(F)F)ccc4F)cc3C2=O)C(=O)N1 (stereo not shown) [Compound 1-1, [2-(2,6-dioxopiperidin-3-yl)-3-oxo-2,3-dihydro-1H-isoindol-5-yl]methyl N-[2-fluoro-5-(trifluoromethoxy)phenyl]carbamate]
- Mean Bliss synergy score (ABC-1 cell line; [1]): 17.46
- Mean Loewe synergy score (ABC-1 cell line; [1]): 13.06
- Mean Bliss synergy score (ABC-1 cell line; [2]): 23.16
- Mean Loewe synergy score (ABC-1 cell line; [2]): 12.88
- Mean Bliss synergy score (ABC-1 cell line; [3]): 17.47
- Mean Loewe synergy score (ABC-1 cell line; [3]): 14.22
- Mean Bliss synergy score (MDA-MB-231 cell line; [4]): −0.82
- Mean Loewe synergy score (MDA-MB-231 cell line; [4]): 5.41
- Mean Bliss synergy score (MDA-MB-231 cell line; [5]): 6.44
- Mean Loewe synergy score (MDA-MB-231 cell line; [5]): 8.02
- Mean Bliss synergy score (MDA-MB-231 cell line; [6]): 12.28
- Mean Loewe synergy score (MDA-MB-231 cell line; [6]): 15.50
- Mean Bliss synergy score (MDA-MB-231 cell line; [7]): 4.62
- Mean Loewe synergy score (MDA-MB-231 cell line; [7]): 12.93
- Mean Bliss synergy score (MDA-MB-231 cell line; [8]): 4.80
- Mean Loewe synergy score (MDA-MB-231 cell line; [8]): 9.37
- Mean Bliss synergy score (MDA-MB-231 cell line; [9]): 3.71
- Mean Loewe synergy score (MDA-MB-231 cell line; [9]): 11.94
- Mean Bliss synergy score (MDA-MB-231 cell line; combined with M2698, MDA-MB-231 cell line, mean across dose response matrix, 72 hrs): 4.89
- Mean Bliss synergy score (NCI-H1155 cell line; [10]): 1.97
- Mean Loewe synergy score (NCI-H1155 cell line; [10]): 4.77
- Mean Bliss synergy score (NCI-H1155 cell line; [11]): 0.38
- Mean Loewe synergy score (NCI-H1155 cell line; [11]): 3.70
- Mean Bliss synergy score (NCI-H1155 cell line; [12]): 1.48
- Mean Loewe synergy score (NCI-H1155 cell line; [12]): 5.14
- Mean Bliss synergy score (NCI-H2023 cell line; [13]): 16.57
- Mean Loewe synergy score (NCI-H2023 cell line; [13]): 4.95
- Mean Bliss synergy score (NCI-H2023 cell line; [14]): 16.57
- Mean Loewe synergy score (NCI-H2023 cell line; [14]): 7.27
- Mean Bliss synergy score (NCI-H2023 cell line; [15]): 10.90
- Mean Loewe synergy score (NCI-H2023 cell line; [15]): 9.33
- antitumor effect vs vehicle (tumor volume) (CAL51 xenografts; alpelisib 20 mg/kg): neither alpelisib nor compound 1-1 produced a statistically significant antitumor effect
- antitumor effect vs vehicle (tumor volume) (CAL51 xenografts; everolimus 2 mg/kg): statistically significant antitumor effect
- Δ TV ratio to vehicle group (A/C, B/C, (AB)/C) (CAL51 xenografts; alpelisib 20 mg/kg): 0.38
- Δ TV ratio to vehicle group (A/C, B/C, (AB)/C) (CAL51 xenografts; everolimus 2 mg/kg): 0.38
- Δ TV (delta tumor volume) (CAL51 xenografts; day 21, alpelisib 20 mg/kg, combination 20 + 3 mg/kg): 215 mm3
- Δ TV (delta tumor volume) (CAL51 xenografts; day 21, everolimus 2 mg/kg, combination 2 + 3 mg/kg): 215 mm3

Compound: Cc1ccc(NC(=O)OCc2ccc3c(c2)C(=O)N(C2CCC(=O)NC2=O)C3)cc1Cl (stereo not shown) [Compound 1-6, [2-(2,6-dioxopiperidin-3-yl)-3-oxo-2,3-dihydro-1H-isoindol-5-yl]methyl N-(3-chloro-4-methylphenyl)carbamate]
- Mean Bliss synergy score (ABC-1 cell line; [16]): 20.25
- Mean Loewe synergy score (ABC-1 cell line; [16]): 11.94
- Mean Bliss synergy score (ABC-1 cell line; [17]): 33.20
- Mean Loewe synergy score (ABC-1 cell line; [17]): 16.0
- Mean Bliss synergy score (ABC-1 cell line; [18]): 26.31
- Mean Loewe synergy score (ABC-1 cell line; [18]): 19.39
- Mean Bliss synergy score (ABC-1 cell line; [19]): 20.34
- Mean Loewe synergy score (ABC-1 cell line; [19]): 7.13
- Mean Bliss synergy score (ABC-1 cell line; [20]): 19.44
- Mean Loewe synergy score (ABC-1 cell line; [20]): 7.24
- Mean Bliss synergy score (ABC-1 cell line; [21]): 17.02
- Mean Loewe synergy score (ABC-1 cell line; [21]): 8.75
- Mean Bliss synergy score (ABC-1 cell line; combined with Everolimus (2.1 nM to 1 uM), ABC-1 cell line, mean across dose response matrix, 72 hrs): 26.31
- Mean Bliss synergy score (MDA-MB-231 cell line; [22]): 1.80
- Mean Loewe synergy score (MDA-MB-231 cell line; [22]): 5.93
- Mean Bliss synergy score (MDA-MB-231 cell line; [23]): 5.75
- Mean Loewe synergy score (MDA-MB-231 cell line; [23]): 7.02
- Mean Bliss synergy score (MDA-MB-231 cell line; [24]): 8.98
- Mean Loewe synergy score (MDA-MB-231 cell line; [24]): 11.33
- Mean Bliss synergy score (MDA-MB-231 cell line; [25]): 2.23
- Mean Loewe synergy score (MDA-MB-231 cell line; [25]): 5.29
- Mean Bliss synergy score (MDA-MB-231 cell line; [26]): 3.19
- Mean Loewe synergy score (MDA-MB-231 cell line; [26]): 6.78
- Mean Loewe synergy score (MDA-MB-231 cell line; MDA-MB-231, combined with M2698 41-10000 nM, first compound 0.41-100 nM): 4.77 and 5.02
- Mean Bliss synergy score (MDA-MB-231 cell line; combined with Everolimus (41 nM to 10 uM), MDA-MB-231 cell line, mean across dose response matrix, 72 hrs): 8.98
- Mean Bliss synergy score (NCI-H1155 cell line; [27]): 5.23
- Mean Loewe synergy score (NCI-H1155 cell line; [27]): 2.10
- Mean Bliss synergy score (NCI-H1155 cell line; [28]): 5.58
- Mean Loewe synergy score (NCI-H1155 cell line; [28]): 4.36
- Mean Bliss synergy score (NCI-H1155 cell line; [29]): −1.66
- Mean Loewe synergy score (NCI-H1155 cell line; [29]): 6.77
- Mean Bliss synergy score (NCI-H1155 cell line; [30]): 3.25
- Mean Loewe synergy score (NCI-H1155 cell line; [30]): 3.14
- Mean Bliss synergy score (NCI-H1155 cell line; [31]): 3.66
- Mean Loewe synergy score (NCI-H1155 cell line; [31]): 2.43
- Mean Bliss synergy score (NCI-H1155 cell line; [32]): 2.04
- Mean Loewe synergy score (NCI-H1155 cell line; [32]): 4.27
- Mean Bliss synergy score (NCI-H2023 cell line; [33]): 19.68
- Mean Loewe synergy score (NCI-H2023 cell line; [33]): 8.92
- Mean Bliss synergy score (NCI-H2023 cell line; [34]): 22.78
- Mean Loewe synergy score (NCI-H2023 cell line; [34]): 11.70
- Mean Bliss synergy score (NCI-H2023 cell line; [35]): 13.21
- Mean Loewe synergy score (NCI-H2023 cell line; [35]): 17.02
- Mean Bliss synergy score (NCI-H2023 cell line; [36]): 14.13
- Mean Loewe synergy score (NCI-H2023 cell line; [36]): 5.10
- Mean Bliss synergy score (NCI-H2023 cell line; [37]): 18.40
- Mean Loewe synergy score (NCI-H2023 cell line; [37]): 11.37
- Mean Bliss synergy score (NCI-H2023 cell line; [38]): 12.91
- Mean Loewe synergy score (NCI-H2023 cell line; [38]): 11.66
- Mean Bliss synergy score (NCI-H2023 cell line; combined with KU-0063794 (21 nM to 10 uM), NCI-H2023 cell line, mean across dose response matrix, 72 hrs): 18.40
- Mean Loewe synergy score (NCI-H2023 cell line; combined with M2698 (21 nM to 10 uM), NCI-H2023 cell line, mean across dose response matrix, 72 hrs): 11.66
